This is an account of results in US5068340A, “Isothiazolyl substituted glycerol derivatives containing phosphate groups” (priority 1986, dated 1991).

Test [1] has as its system PAF-induced platelet aggregation. The experiment in a line: Inhibition of PAF-induced platelet aggregation in vitro (platelet-rich plasma). The conditions noted are these: Oryctolagus cuniculus, 5 min, rabbit plasma, platelet count 6×10^5/μl, C16:0 PAF 1×10^-8-3×10^-8 M final. The class given is cell-based. As to the method:
Inhibition of PAF-induced platelet aggregation in vitro
Blood was drawn from a rabbit and immediately mixed with one nineth of its volume of a 3.8% w/v aqueous solution of sodium citrate. A platelet-rich plasma (PRP) was obtained as a supernatant by centrifugation of the blood at 150×g for 15 minutes at room temperature. The precipitated fraction was centrifuged for a further 15 minutes at 1000×g to obtain a platelet-poor plasma (PPP) as a supernatant. Appropriate proportions of this PRP and PPP were mixed to obtain a plasma having a platelet count of 6×10^5 /μl.
Platelet aggregation was determined by the method of Born et al. [G. V. R. Born et al., J. Physiol., 62, 67-68 (1962)] where an increase in light transmission is measured by the aggregometer.
25 μl of a saline solution containing the compound to be tested at an appropriate concentration was added to 250 μl of the above plasma. One minute thereafter. […] The aggregation resulting from the addition of PAF alone, without the prior addition of the test compound was taken as 100%.
The IC50 values (i.e. concentrations to inhibit aggregation by 50%) were calculated from dose-response curves and are shown in Table 6.

The next test relates to PAF-induced hypotension. The experiment in a line: Inhibition of PAF-induced hypotension (rat, i.v.). The class given is in vivo, rats of the Wistar-Imamichi strain. The conditions noted are these: 50% inhibitory dose, intravenous, cumulative doses, 10 ng/kg i.v. 1-C16:0 PAF, Inactin anesthesia, rats, read-out: Inhibition of Hypotension ID50. Here is the method:
Inhibition of PAF-induced hypotension
The test animals employed were rats of the Wistar-Imamichi strain, each weighing between 350 and 450 g.
Under Inactin anesthesia (90 mg/kg administered intraperitoneally) the left femoral artery and vein of each test animal were cannulated to enable the arterial blood pressure to be monitored continuously and for drug administration, respectively. At intervals of about 5 minutes, each animal was given by intravenous injection 10 ng/kg of synthetic 1-C16:0 PAF until a steady hypotensive response was achieved. At this time, the drug to be tested was administered by intravenous injection in doses increasing cumulatively by a factor of 3. Within 1 minute of this injection, a further 10 ng/kg of the 1-C16:0 PAF was administered. The hypotensive response to PAF was inhibited by the test drug in a dose-related manner.
The PAF was administered in the form of a solution in physiological saline containing 0.25% w/v bovine serum albumin. The test drugs were dissolved in physiological saline containing either 0.25% w/v BSA or 20% v/v ethanol.
The 50% inhibitory dose (ID50) was calculated from the dose-response curve constructed for the inhibition of PAF-induced hypotension.
This test was carried out using compounds of the invention, as well as the prior art compound CV-3988, disclosed in U.S. Pat. No. 4,408,052 and represented by the foregoing formula (B).

Structures can show the parent of a compound that is named as a salt.

A word on the IC50: it is the concentration that gives 50% inhibition. A higher IC50 goes with weaker potency in that assay. For `CCCCCCCCCCCCCCCCCNC(=O)OCC(COP(=O)([O-])OCC[n+]1ccsc1)Oc1cc(C)on1` (racemic) [Example 18, (2RS)-3-(N-Heptadecylcarbamoyloxy)-2-(5-methyl-3-isoxazolyloxy)propyl 2-thiazolioethyl phosphate (inner salt)], the IC50 in test [1] is 4800 nM. Further, the ED50 in the test on PAF-induced hypotension was found to be 0.081 mg/kg.

As to `CCCCCCCCCCCCCCCCc1cc(OC[C@H](COC(=O)N[C@H](CCCCC[n+]2ccsc2)C(=O)OCC)Oc2ccon2)no1.CS(=O)(=O)[O-]` (racemic) [Example 41, 3-{(6RS)-6-Ethoxycarbonyl-6-[(2RS)-3-(5-hexadecyl-3-isoxazolyloxy)-2-(3-isoxazolyloxy)propoxy]carbonylaminohexyl}thiazolium methanesulfonate], in test [1], the concentration for half-maximal inhibition (IC50) came to 350 nM. In the test with PAF-induced hypotension, the ED50 came out at 0.054 mg/kg.

For `CCCCCCCCCCCCCCCc1cc(OCC(COC(=O)NCCCCC[n+]2ccsc2)Oc2cc(C)on2)no1` (racemic) [Example 25, (2RS)-1-O-(5-Pentadecyl-3-isoxazolyl)-2-O-(5-methyl-3-isoxazolyl)-3-O-{N-(5-thiazoliopentyl)carbamoyl}glycerol bromide], half-maximal inhibition in test [1] (IC50) was put at 270 nM. The ED50 with PAF-induced hypotension worked out at 0.055 mg/kg.

`CCCCCCCCCCCCCCCCCCNC(=O)OCC(COP(=O)([O-])OCC[n+]1ccsc1)OC` (stereo not drawn) [CV-3988, reference compound]: half-maximal inhibition in test [1] (IC50) was put at 9800 nM. For the same compound, the ED50 in the test with PAF-induced hypotension stood at 0.415 mg/kg.

Regarding `CCCCCCCCCCCCCCCc1cc(OCC(COP(=O)([O-])OCCCCCC[n+]2ccsc2)Oc2cc(C)on2)no1` (racemic) [Example 23, (2RS)-3-(5-Pentadecyl-3-isoxazolyloxy)-2-(5-methyl-3-isoxazolyloxy)propyl 6-thiazoliohexyl phosphate (inner salt)], half-maximal inhibition in test [1] (IC50) was put at 1400 nM. Moreover, in the test on PAF-induced hypotension, the ED50 was determined as 0.067 mg/kg.

`CCCCCCCCCCCCCCCCCNC(=O)OCC(COP(=O)([O-])OCC[n+]1ccsc1)Oc1ccon1` (racemic) [Example 13, (2RS)-3-(N-Heptadecylcarbamoyloxy)-2-(3-isoxazolyloxy)propyl 2-thiazolioethyl phosphate (inner salt)]: in test [1], the IC50 was determined as 3400 nM. Also, the ED50 in the test with PAF-induced hypotension stood at 0.096 mg/kg.

In test [1], `CCCCCCCCCCCCCCCCCNC(=O)OCC(COC(=O)N(Cc1cccc[n+]1CC)C(C)=O)Oc1ccon1` (racemic) [Example 38, 2-{N-Acetyl-N-[(2RS)-3-(N-Heptadecylcarbamoyloxy)-2-(3-isoxazolyloxy)propoxycarbonyl]aminomethyl}-1-ethylpyridinium chloride] showed an IC50 of 81 nM. In addition, in the test on PAF-induced hypotension, the ED50 was determined as 0.004 mg/kg.

`CCCCCCCCCCCCCCCCCNC(=O)OCC(COC(=O)NCCCCC[n+]1ccsc1)Oc1cc(C)on1.[Br-]` (racemic) [Example 33, 3-{5-[(2RS)-3-(N-Heptadecylcarbamoyloxy)-2-(5-methyl-3-isoxazolyloxy)propoxycarbonylamino]pentyl}thiazolium bromide] yielded an IC50 in test [1] of 310 nM. The ED50 with PAF-induced hypotension was 0.086 mg/kg.

The compound `CCCCCCCCCCCCCCCc1cc(OCC(COCCCCCCC[n+]2ccsc2)Oc2cc(C)on2)no1` (racemic) [Example 24, (2RS)-1-O-(5-Pentadecyl-3-isoxazolyl)-2-O-(5-methyl-3-isoxazolyl)-3-(7-thiazolioheptyl)glycerol methanesulfonate] showed a half-inhibitory concentration (IC50) in test [1] of 310 nM. In addition, in the test with PAF-induced hypotension, the ED50 is 0.03 mg/kg.
